Calls of active or inactive are those of the source.
Experiments:
[1] = target: T1, Zinc finger protein mex-5 (Caenorhabditis elegans, UniProt Q9XUB2); test: MEX-5/TCR-2 RNA interaction inhibitors, dose response, biochemical, C. elegans, fluorescence polarization (AID 1960)
T1 sequence (Q9XUB2 whole entry): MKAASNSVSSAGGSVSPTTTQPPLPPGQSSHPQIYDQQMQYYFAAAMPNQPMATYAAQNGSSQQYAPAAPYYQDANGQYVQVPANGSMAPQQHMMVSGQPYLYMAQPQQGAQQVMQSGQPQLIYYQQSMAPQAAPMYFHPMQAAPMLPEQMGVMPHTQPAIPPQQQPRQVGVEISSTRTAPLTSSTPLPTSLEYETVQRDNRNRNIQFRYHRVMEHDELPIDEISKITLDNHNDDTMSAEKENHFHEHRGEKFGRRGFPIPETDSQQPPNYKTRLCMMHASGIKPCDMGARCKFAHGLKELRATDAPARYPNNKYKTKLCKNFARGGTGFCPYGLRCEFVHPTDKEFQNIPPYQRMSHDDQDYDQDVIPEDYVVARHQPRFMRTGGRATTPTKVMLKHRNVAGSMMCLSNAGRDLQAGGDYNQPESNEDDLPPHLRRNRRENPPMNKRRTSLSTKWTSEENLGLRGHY

[2] = target: T2, RNA-binding protein pos-1 (Caenorhabditis elegans, UniProt G5EF15); test: inhibitors of POS-1/mex-3 RNA binding, dose response, biochemical, fluorescence polarization (AID 1964);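 note: purified POS-1 fused to maltose binding protein made in E. coli; potency of compounds blocking POS-1 binding to fluorescent RNA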
T2 sequence (G5EF15 whole entry): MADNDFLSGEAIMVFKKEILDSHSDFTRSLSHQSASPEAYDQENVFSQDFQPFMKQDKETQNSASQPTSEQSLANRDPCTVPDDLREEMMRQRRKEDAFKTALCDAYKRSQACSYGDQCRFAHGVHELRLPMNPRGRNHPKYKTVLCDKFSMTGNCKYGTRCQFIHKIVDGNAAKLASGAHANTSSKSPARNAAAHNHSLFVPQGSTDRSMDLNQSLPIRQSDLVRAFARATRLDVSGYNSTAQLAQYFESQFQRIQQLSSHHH

[3] = target: T3, Polyadenylate-binding protein 1 (Homo sapiens, UniProt P11940); test: PABP1 MLLE–PAM2 binding inhibitor potency, dose response, biochemical, fluorescence polarization, FITC-PAM2 peptide (AID 602259); format: functional; conditions: read-out: IC50_Mean
T3 sequence (P11940 whole entry): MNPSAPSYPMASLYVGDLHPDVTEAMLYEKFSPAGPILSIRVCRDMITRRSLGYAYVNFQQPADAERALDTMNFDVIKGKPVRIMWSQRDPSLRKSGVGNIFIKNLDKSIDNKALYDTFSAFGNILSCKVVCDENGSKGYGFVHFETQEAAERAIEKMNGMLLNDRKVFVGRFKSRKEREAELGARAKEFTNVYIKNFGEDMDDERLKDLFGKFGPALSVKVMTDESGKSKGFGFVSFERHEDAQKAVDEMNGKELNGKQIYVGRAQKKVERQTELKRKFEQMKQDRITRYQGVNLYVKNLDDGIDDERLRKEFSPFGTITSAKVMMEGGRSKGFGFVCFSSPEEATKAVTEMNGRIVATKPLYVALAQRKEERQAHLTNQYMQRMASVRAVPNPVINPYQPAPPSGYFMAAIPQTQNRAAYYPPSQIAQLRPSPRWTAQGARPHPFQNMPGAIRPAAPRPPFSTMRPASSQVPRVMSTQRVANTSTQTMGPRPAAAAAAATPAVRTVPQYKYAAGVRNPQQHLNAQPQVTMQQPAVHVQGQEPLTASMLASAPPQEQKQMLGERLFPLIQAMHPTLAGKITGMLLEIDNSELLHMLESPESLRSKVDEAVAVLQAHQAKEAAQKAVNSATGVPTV

Cytochrome P450 3A4 = Cytochrome P450 3A4 (Homo sapiens, UniProt P08684);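 note: CYP3A4 tested as one member of a cytochrome P450 panel screen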
Cytochrome P450 3A4, sequence (P08684 whole entry): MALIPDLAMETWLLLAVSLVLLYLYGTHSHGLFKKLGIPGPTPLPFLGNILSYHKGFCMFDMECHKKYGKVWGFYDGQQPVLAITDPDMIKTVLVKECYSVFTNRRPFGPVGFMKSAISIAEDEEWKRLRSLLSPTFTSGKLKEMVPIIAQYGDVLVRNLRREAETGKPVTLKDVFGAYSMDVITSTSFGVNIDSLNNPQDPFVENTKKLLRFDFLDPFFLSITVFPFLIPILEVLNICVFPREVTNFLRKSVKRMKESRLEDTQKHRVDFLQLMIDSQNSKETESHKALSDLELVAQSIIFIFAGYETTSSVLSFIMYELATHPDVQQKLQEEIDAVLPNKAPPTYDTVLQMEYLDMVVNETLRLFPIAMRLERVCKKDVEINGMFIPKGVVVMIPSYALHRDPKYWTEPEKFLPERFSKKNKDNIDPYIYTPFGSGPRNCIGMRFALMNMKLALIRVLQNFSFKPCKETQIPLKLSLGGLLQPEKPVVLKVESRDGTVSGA

[4] = target: T3, Polyadenylate-binding protein 1; test: PABP1 MLLE–PAM2 interaction inhibitors, dose response, miRNA deadenylation inhibitor project, biochemical, fluorescence polarization, Cy5-PAM2 peptide, secondary (AID 602260); format: functional; conditions: read-out: IC50_Mean
[5] = ZM109 Env clade C HIV-1 fusion inhibitors, dose response, HeLa effector, CEM target cells, luciferase, cherry-pick (AID 652058); format: functional, cell-based
[6] = inhibitors of clade B AD8 Env fusion, dose response, cell-based, cherry-pick (AID 652062); format: functional;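 note: luciferase signal from cell-cell fusion driven by HIV-1 clade B AD8 Env; potency is for inhibitors of fusion seen as a drop in luminescence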
[7] = target: T4, Heat shock factor protein 1 (Mus musculus, UniProt P38532); test: inhibition of MG132-induced HSE-luciferase signal, confirmation, cell-based, NIH3T3, luminescence, dose retest (AID 2382); format: functional;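 note: NIH3T3 fibroblasts with HSF1-driven luciferase reporter stressed by proteasome inhibitor MG132; luminescence from HSF1-driven luciferase expression after 8 hours of MG132 stress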
T4 sequence (P38532 whole entry): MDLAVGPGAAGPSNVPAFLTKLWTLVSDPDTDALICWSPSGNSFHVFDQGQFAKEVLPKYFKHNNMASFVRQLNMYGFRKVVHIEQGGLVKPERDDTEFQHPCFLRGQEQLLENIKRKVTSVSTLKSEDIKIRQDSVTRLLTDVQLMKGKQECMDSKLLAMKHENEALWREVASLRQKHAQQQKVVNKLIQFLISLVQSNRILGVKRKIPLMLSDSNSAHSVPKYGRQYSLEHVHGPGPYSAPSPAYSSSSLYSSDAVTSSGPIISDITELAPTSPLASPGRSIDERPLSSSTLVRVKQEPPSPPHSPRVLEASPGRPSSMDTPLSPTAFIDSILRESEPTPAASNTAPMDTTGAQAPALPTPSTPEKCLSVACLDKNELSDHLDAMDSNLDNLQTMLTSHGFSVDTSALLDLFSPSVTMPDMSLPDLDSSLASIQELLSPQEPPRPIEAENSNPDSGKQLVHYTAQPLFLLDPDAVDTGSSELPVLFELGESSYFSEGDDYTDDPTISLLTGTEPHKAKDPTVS

[8] = NIH-3T3 fibroblast cytotoxicity, dose response, cytotoxicity control, cell-based, fluorescence, Alamar Blue, secondary assay (AID 2327); format: functional;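 note: NIH-3T3 mouse fibroblasts cultured with fluconazole at 8 µg/mL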
Cytochrome P450 2C19 = Cytochrome P450 2C19 (Homo sapiens, UniProt P33261); test: Cytochrome panel assay with activity outcomes. Panel member name: p450-cyp2c19 Compounds with AC50 equal or less than 10 uM are considered active; format: functional
Cytochrome P450 2C19, sequence (P33261 whole entry): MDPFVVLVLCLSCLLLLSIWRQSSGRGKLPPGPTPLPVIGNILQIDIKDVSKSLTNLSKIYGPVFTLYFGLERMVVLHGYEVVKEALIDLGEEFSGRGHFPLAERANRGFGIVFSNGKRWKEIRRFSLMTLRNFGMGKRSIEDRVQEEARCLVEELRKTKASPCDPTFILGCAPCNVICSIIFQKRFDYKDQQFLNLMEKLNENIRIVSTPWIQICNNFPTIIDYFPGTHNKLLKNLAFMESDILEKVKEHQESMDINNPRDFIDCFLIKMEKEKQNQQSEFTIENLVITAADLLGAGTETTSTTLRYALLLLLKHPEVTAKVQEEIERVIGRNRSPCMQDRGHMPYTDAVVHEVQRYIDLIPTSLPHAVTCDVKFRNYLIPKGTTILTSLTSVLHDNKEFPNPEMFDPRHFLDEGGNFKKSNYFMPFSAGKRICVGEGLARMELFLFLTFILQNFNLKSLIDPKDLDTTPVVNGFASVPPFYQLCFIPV

Cytochrome P450 2C9 = Cytochrome P450 2C9 (Homo sapiens, UniProt P11712)
Cytochrome P450 2C9, sequence (P11712 whole entry): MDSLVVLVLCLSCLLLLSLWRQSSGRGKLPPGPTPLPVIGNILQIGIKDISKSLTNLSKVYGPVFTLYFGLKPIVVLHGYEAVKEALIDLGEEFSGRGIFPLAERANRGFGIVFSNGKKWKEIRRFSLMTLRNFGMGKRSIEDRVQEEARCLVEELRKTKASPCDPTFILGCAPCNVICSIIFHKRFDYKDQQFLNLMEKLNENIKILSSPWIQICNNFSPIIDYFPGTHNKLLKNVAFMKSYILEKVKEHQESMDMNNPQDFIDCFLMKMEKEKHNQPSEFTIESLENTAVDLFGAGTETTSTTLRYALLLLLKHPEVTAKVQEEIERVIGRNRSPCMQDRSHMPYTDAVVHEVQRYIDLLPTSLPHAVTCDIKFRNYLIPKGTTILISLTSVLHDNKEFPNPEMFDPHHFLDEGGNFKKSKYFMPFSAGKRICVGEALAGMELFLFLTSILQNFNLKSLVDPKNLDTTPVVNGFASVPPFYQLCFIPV

[9] = target: T5, Replicative DNA helicase DnaB (Mycobacterium tuberculosis, UniProt P9WMR3); test: DnaB intein splicing inhibitors, dose response, biochemical, cell-free fluorescence (AID 449749); format: functional
T5 sequence (P9WMR3 whole entry): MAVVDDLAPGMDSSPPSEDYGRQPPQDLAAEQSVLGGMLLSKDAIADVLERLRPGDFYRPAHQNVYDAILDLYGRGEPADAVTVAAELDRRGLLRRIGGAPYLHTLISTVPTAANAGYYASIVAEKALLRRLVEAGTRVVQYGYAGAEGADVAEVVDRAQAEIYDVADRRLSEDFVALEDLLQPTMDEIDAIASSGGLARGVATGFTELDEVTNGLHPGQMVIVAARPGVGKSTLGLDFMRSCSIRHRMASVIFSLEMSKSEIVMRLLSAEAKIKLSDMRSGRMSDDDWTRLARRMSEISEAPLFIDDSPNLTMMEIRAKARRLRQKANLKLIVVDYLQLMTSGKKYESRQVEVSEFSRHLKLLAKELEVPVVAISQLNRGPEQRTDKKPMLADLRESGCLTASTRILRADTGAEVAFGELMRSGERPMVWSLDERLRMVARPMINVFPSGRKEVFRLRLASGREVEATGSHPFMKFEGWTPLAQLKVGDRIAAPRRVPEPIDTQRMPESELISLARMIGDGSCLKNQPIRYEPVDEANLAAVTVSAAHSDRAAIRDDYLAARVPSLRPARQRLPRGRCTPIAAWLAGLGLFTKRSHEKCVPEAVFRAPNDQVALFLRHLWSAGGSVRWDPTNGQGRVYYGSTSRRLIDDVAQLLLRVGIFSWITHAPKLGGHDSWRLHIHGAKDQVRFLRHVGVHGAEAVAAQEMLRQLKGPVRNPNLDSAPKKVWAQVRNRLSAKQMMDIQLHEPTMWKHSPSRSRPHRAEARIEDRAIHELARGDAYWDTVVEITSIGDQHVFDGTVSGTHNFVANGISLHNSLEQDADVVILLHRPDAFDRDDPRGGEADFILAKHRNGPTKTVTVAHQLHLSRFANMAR

Leucine aminopeptidase = target: T6, Leucine aminopeptidase (Plasmodium falciparum 3D7, UniProt Q8IL11); test: P. falciparum M17LAP inhibitors, primary screen, biochemical, fluorogenic H-Leu-NHMec substrate, 1536-well (AID 1619); format: functional
T6 sequence (Q8IL11 whole entry): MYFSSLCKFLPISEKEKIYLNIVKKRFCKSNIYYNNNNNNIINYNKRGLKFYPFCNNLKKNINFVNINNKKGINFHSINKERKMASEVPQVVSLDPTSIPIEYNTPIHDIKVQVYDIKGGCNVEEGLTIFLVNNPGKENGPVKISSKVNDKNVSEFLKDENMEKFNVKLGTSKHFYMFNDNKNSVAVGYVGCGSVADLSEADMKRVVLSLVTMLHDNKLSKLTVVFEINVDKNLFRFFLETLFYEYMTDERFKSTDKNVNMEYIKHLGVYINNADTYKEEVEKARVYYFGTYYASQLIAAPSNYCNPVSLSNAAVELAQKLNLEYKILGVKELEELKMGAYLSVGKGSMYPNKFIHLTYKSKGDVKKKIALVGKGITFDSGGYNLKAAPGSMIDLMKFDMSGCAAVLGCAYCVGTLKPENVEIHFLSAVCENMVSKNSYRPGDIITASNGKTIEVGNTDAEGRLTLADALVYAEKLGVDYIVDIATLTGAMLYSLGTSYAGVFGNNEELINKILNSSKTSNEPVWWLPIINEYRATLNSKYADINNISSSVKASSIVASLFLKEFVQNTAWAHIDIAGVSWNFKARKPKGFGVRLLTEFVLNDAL

Protein RecA = target: T7, Protein RecA (Mycobacterium tuberculosis, UniProt P9WHJ3); test: Fluorescence Cell-Free Homogeneous Dose Retest to Identify Inhibitors of RecA-Intein Splicing Activity. [Related pubchem assays (depositor defined):AID2097, AID2223, AID489010, AID492950]; format: functional
T7 sequence (P9WHJ3 whole entry): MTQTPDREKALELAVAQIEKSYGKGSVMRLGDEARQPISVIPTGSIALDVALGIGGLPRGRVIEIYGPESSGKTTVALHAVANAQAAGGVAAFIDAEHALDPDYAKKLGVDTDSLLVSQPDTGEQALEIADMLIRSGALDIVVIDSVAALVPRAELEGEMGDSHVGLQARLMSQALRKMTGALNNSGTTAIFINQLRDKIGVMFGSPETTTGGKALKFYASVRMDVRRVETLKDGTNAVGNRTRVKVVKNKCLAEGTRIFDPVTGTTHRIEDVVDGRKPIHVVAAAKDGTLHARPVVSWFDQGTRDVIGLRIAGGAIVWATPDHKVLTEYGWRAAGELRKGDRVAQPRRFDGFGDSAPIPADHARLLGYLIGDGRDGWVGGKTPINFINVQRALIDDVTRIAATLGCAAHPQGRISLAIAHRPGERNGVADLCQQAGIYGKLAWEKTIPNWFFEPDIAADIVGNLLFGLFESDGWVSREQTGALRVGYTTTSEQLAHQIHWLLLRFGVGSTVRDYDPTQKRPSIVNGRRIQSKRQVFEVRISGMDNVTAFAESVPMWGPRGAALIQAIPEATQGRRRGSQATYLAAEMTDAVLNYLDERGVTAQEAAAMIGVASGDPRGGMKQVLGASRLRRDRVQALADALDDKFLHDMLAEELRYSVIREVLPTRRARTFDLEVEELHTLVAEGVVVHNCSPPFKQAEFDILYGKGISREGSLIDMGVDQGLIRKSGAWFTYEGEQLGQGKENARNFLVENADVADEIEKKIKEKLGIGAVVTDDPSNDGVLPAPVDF

Row | Structure (SMILES) | EC50 [1] | EC50 [2] | IC50 [3] | IC50 [4] | also measured
1 | CCOc1ccc(N/C(=C(/C(Cl)=C(Cl)Cl)[N+](=O)[O-])n2cncn2)cc1 | 45.4 µM (active) | 46.9 µM (active) | – | – | –
2 | CC1=C(C#N)C(=O)OC(C)(C)C1 | 10.1 µM (active) | 10.8 µM (active) | – | – | –
3 | CCC1(c2ccccc2)NC(=O)N(CC(=O)NCc2ccc(F)cc2)C1=O (stereo not drawn) | > 300 µM (not active) | > 300 µM (not active) | – | – | –
4 | COC(=O)c1cc(-c2ccccc2)sc1NC(=O)CN1C(=O)c2ccccc2C1=O | – | – | > 66 µM (inactive) | > 66 µM (inactive) | AC50 (Cytochrome P450 3A4): 31.6 µM (inconclusive)
5 | O=C(NC(=S)Nc1ccc(CN2CCOCC2)cc1)c1ccc([N+](=O)[O-])cc1 | – | – | > 66 µM (inactive) | > 66 µM (inactive) | –
6 | C=CC[n+]1c(-c2ccc(OC)c(OC)c2)csc1NNC(=O)Nc1ccccc1 | – | – | – | – | AC50 [5]: 0.401 µM (active); AC50 [6]: 15.8 µM (active)
7 | NC(=O)CC(NC(=O)Cc1ccc(Cl)cc1)c1ccc(NC2CCCCCC2)c([N+](=O)[O-])c1 (stereo not drawn) | > 300 µM (not active) | > 300 µM (not active) | – | – | EC50 [7]: > 195 µM (not active)
8 | C=C(C)c1cccc(C(C)(C)NC(=O)Nc2ccc(C(N)=O)cc2)c1 | – | – | – | – | EC50 [8]: > 150 µM (inactive)
9 | CCOc1ccccc1C(=O)NCC(=O)NNC(=O)CN(C)S(=O)(=O)c1ccc(Cl)cc1 | – | – | – | – | AC50 [5]: 23.6 µM (active)
10 | COC(=O)c1c(N=C(S)Nc2cc(OC)c(Cl)cc2OC)sc2c1CCCCC2 | – | – | > 66 µM (inactive) | > 66 µM (inactive) | –
11 | Cc1cc(O)nc(SCC(=O)Nc2ccc(C(=O)O)cc2)n1 | – | – | > 66 µM (inactive) | > 66 µM (inactive) | –
12 | COc1cccc(C(=O)NCc2ccc3[nH]c(C)cc3c2)c1 | – | – | > 66 µM (inactive) | > 66 µM (inactive) | –
13 | Cc1nc(N=C(N)S)sc1C(=O)Nc1ccccc1 | – | – | > 66 µM (inactive) | > 66 µM (inactive) | AC50 (Cytochrome P450 2C19): inconclusive; AC50 (Cytochrome P450 3A4): 14.1 µM (inconclusive); AC50 (Cytochrome P450 2C9): 39.8 µM (inconclusive)
14 | COc1ccc(C(=O)NC(=S)N2CCCc3ccccc32)cc1OC | – | – | > 66 µM (inactive) | > 66 µM (inactive) | –
15 | Cc1ccc2nc(O)c(C(c3nnnn3CC3CCCO3)N3CCc4ccccc4C3)cc2c1 (stereo not drawn) | – | – | > 66 µM (inactive) | > 66 µM (inactive) | –
16 | O=C(c1ccco1)N1CCN(c2ncnc3c(-c4ccc(Cl)cc4)nsc23)CC1 | > 300 µM (not active) | > 300 µM (not active) | – | – | –
17 | CCCCC1=CC2=CC(=O)C(C)(OC(=O)CCC(=O)OC)C(=O)C2=CO1 (stereo not drawn) | 26.6 µM (active) | 30 µM (active) | – | – | –
18 | O=S(=O)(NCCCSc1ccccc1)c1ccccc1F | – | – | > 66 µM (inactive) | > 66 µM (inactive) | –
19 | CCCN1C(=O)/C(=C/c2ccc(C)o2)S/C1=N/c1ccc(OC)cc1 | 103 µM (inconclusive) | 44.6 µM (active) | – | – | –
20 | CC(/C=N/NC(=O)Cc1cc(O)[nH]n1)=C\c1ccccc1 | – | – | – | – | AC50 [9]: 2.53 µM (active); IC50 (Leucine aminopeptidase): 72.4 µM (active); EC50 (Protein RecA): 0.935 µM (active)
21 | C/C(=N\Nc1ccc([N+](=O)[O-])cc1[N+](=O)[O-])c1cc2c(ccc3ccccc32)oc1=O | > 300 µM (not active) | > 300 µM (not active) | – | – | –
22 | O=C(/N=C1\SC2CS(=O)(=O)CC2N1c1ccccc1)C1CC1 (stereo not drawn) | > 300 µM (inconclusive) | > 300 µM (not active) | – | – | –
